Entries after “also recorded” stand apart in the source; their conditions may differ. Where only a bound is given, the exact number is not on record here.

The subject of data set [1] is C-terminal domain (CTD) of RNA polymerase II, serine 2 and serine 5. Nature of the data set: Immunoblotting: phosphorylation of the C-terminal domain of RNA polymerase II. It counts as cell-based. As to the method:
Cell were detached with rubber policeman and washed three times with ice-cold PBS and lysed in buffer (50 mM Tris, pH 7.4, 250 mM NaCl, 5 mM EDTA, 50 mM NaF, 1 mM Na3VO4, 1% Nonidet P40) containing mixture of protease and phosphatase inhibitors (Sigma-Aldrich St Louis, Mo., USA). 20 μg of total proteins were separated by SDS-polyacrylamide gel electrophoresis (SDS-PAGE) on 8% or 10% gels and transferred onto nitrocellulose membranes. Membranes were blocked in 5% milk and 0.1% Tween 20 in PBS and probed overnight with specific monoclonal antibodies or rabbit polyclonal sera. Primary antibodies specific for RNA polymerase II (all from Santa Cruz Biotechnology, California, USA) included: (i) N-20 used at 1 μg/ml, (ii) H14, specific for form phosphorylated at phosphoserine 5, used at 6 μg/ml and (iii) H5, specific for form phosphorylated at phosphoserine 2 used at 4 μg/ml. Additional primary mAb used in immunblots included (iv) anti-p53 (DO-1, in house) used at 1 μg/ml, (v) anti-p21^WAF1 (118, in house), used at 1 μg/ml), (vi) anti-actin (A-2066, Sigma-Aldrich St Louis, Mo., USA) used at 1 μg/ml, (vii) anti-T-antigen (419, in house), used at 1 μg/ml. All primary antibodies were diluted in PBS containing 5% powdered milk; 0.1% Tween 20. Peroxidase conjugated rabbit anti-mouse immunoglobulin or porcine anti-rabbit immunoglobulin antisera (DAKO, Glostrup, Denmark) were used as the secondary antibodies and visualised with ECL reagents (Amersham-Pharmacia, Little Chalfont, UK).
Modulation of expression from the HIV promoter by CDKI treatment may be mediated by transcriptional regulation. At the C-terminus of the largest subunit of RNA Pol II is an important regulatory domain referred to as CTD (C-terminal domain). We therefore investigated the effect of CDKIs on CTD serine 2 and serine 5 phosphorylation. […] Although the functions of CDKs and RNA polymerase II were suppressed, the expression from incorporated viral promoters was enhanced.
Cell were detached with rubber policeman and washed three times with ice-cold PBS and lysed in buffer (50 mM Tris, pH 7.4, 250 mM NaCl, 5 mM EDTA, 50 mM NaF, 1 mM Na3VO4, 1% Nonidet P40) containing mixture of protease and phosphatase inhibitors (Sigma-Aldrich St Louis, Mo., USA). 20 μg of total proteins were separated by SDS-polyacrylamide gel electrophoresis (SDS-PAGE) on 8% or 10% gels and transferred onto nitrocellulose membranes. Membranes were blocked in 5% milk and 0.1% Tween 20 in PBS and probed overnight with specific monoclonal antibodies or rabbit polyclonal sera. […]
On the technique in general: Immunoblotting shows a protein as a band on a membrane.

Data set [2] can be described thus: In vitro cytotoxic activity (Calcein AM, 72 hours), BJ. The settings on record: human, BJ normal fibroblasts.
Data set [3] deals with A549 lung adenocarcinoma xenograft. Nature of the data set: In vivo anticancer activity, human xenograft model of A549 lung adenocarcinoma. On the technique in general: A xenograft is tissue or cells of one species grown in another, often human tumour cells in immunodeficient mice.
For data set [4], the system named is breast carcinoma MCF7. Nature of the data set: In vitro cytotoxic activity (Calcein AM, 72 hours), MCF7. Particulars: Homo sapiens, MCF7, 72 h, read-out: Cytotoxicity IC50 MCF7.
The test system of data set [5] is VV. In kind it is cell-based, Vaccinia virus strain WR. The settings on record: Vaccinia virus on HFFF.
The test system of data set [6] is HIV promoter (pHIV-lacZ, extrachromosomal) in H1299-TAT cells. In words: β-galactosidase expression from pHIV-lacZ transiently transfected to H1299-TAT. Particulars: H1299-TAT cells (FIG. 11).
The subject of data set [7] is human malignant melanoma G 361. Nature of the data set: In vitro cytotoxic activity (Calcein AM, 72 hours), G 361. The settings on record: G-361, 72 h, read-out: Cytotoxicity IC50 G361.
Data set [8] has as its system HAd4. Nature of the data set: Plaque number reduction assay, HAd4 on A549. In kind it is cell-based, Human adenovirus type 4 (HAdV-4) strain RI-6.
Data set [9] relates to HIV promoter integrated into cellular DNA (H1299-HIV cells). Nature of the data set: β-galactosidase expression from pHIV-lacZ incorporated to cellular genome (H1299-HIV). Particulars: HIV promoter integrated into cellular DNA (FIG. 11).
Data set [10] relates to human osteogenic sarcoma HOS. Nature of the data set: In vitro cytotoxic activity (Calcein AM, 72 hours), HOS. Particulars: read-out: Cytotoxicity IC50 HOS.
In data set [11] the test system is MV. In words: MV syncytium reduction assay in B95a cells. In kind it is cell-based, Measles virus wildtype strain WTFb.
In data set [12] the test system is p53-responsive reporter pRGCΔfoslacZ in human melanoma cell line Arn8. In words: p53-dependent transcriptional activity, β-galactosidase reporter in Arn8 cells.
In data set [13] the test system is cervical carcinoma cells HELA. Nature of the data set: In vitro cytotoxic activity (Calcein AM, 72 hours), HELA. The settings on record: Homo sapiens, read-out: Cytotoxicity IC50 HeLa.
In data set [14] the test system is human erythroleukaemia K562. In words: In vitro cytotoxic activity (Calcein AM, 72 hours), K562. Particulars: K562, 72 h, read-out: Cytotoxicity IC50 K-562.

The IC50 is the concentration that inhibits the measured activity by half. `CCC(CO)Nc1nc(NCc2ccccc2N)c2ncn(C(C)C)c2n1` (centres unmarked) [Compound 105, 2-({6-[(2-aminobenzyl)amino]-9-isopropyl-9H-purin-2-yl}amino)butan-1-ol]: the “phosphorylation of both serine 2 and serine 5 of RNA polymerase II CTD” value in data set [1] (12 hours treatment, cell lines with incorporated SV40, all tested cell lines (FIG. 12A)) is “inhibited”. In data set [1] (COS-1, CV-1 and MCF-7 cells), the “levels of serine 2 and serine 5 phosphorylation of RNA polymerase II CTD” value is recorded as “substantially reduced”. Further, the “phosphorylation of CTD of RNA polymerase II” value in [1] (MCF7 cells treated for 24 h, immunoblot (FIG. 2)) is listed as “reduced phosphorylation”. Also, in [2], the 50% inhibitory concentration (IC50) at 72 h was greater than 167 µM. Moreover, the tolerability in animals result in [3] (CD-1 SCID mice, orally twice daily 150 mg/kg, Days 1-3 and 7-9) is “good tolerability”. For the same molecule, the tumor volume analysis entry in data set [3] (CD-1 SCID mice, orally twice daily 150 mg/kg, P=0.0409 versus vehicle) is recorded as “significantly smaller tumors”. Also, in data set [3] (as printed in the A549 tumor volume paragraph), the mean survival time is reported as 15.4 days. In addition, the IC50 was 3.4 µM in data set [4]; 8 µM in data set [7]; 11 µM in [10]; 2.5 µM in [13]; 12.8 µM in data set [14]. Besides, the “inhibition of virus replication (in words)” value in [5] was “inhibited equally well”; in [8] it was “inhibited HAd4 replication; also recorded: profound effect”; in data set [11] it was “ineffective”. Moreover, in [6], the “expression from pHIV-lacZ (extrachromosomal location), β-galactosidase readout” value was “inhibited”. The “increase of reporter readout” value in data set [9] is listed as 4 times. Further, the “blue-coloured cells (β-galactosidase activity, X-gal substrate)” value in data set [12] (Arn8 cells, 5 μM) is “about 25%”. In data set [12] (Arn8 cells, 12 and 24 hours after treatment), the “total β-galactosidase activity, colorimetric assay” value is on record as “strong activity”. Further, the “Max. β-Gal. Activtity Conc.” value in [12] (concentration inducing maximum of β-galactosidase activity (p53-responsive reporter)) amounted to 16 µM.
